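Grown in 96-well plates, cells were treated for 48 hours with each compound at five concentrations. Insufficient inhibition: endpoint recorded as highest concentration tested. GI50 is the concentration that inhibits growth by half. TGI: concentration producing complete growth inhibition.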
Key:
Assay in all cases: inhibition of tumour cell growth, NCI panel, 48 h
[1] = test system: 786-0 renal
[2] = test system: A549 NSCLC
[3] = test system: ACHN renal
[4] = test system: BT-549 breast
[5] = test system: CAKI-1 renal
[6] = test system: CCRF-CEM leukemia
[7] = test system: COLO 205 colon
[8] = test system: EKVX NSCLC
[9] = test system: HCT-15 colon
[10] = test system: HL-60(TB) leukemia
[11] = test system: HOP-62 NSCLC
[12] = test system: HOP-92 NSCLC
[13] = test system: HS 578T breast
[14] = test system: HT29 colon
[15] = test system: IGROV1 ovarian
[16] = test system: K-562 leukemia
[17] = test system: KM12 colon
[18] = test system: LOX IMVI melanoma
[19] = test system: M14 melanoma
[20] = test system: MALME-3M melanoma
[21] = test system: MCF7 breast
[22] = test system: MDA-MB-435
[23] = test system: MOLT-4 leukemia
[24] = test system: NCI-H226 lung
[25] = test system: NCI-H23 lung
[26] = test system: NCI-H460 lung
[27] = test system: NCI-H522 lung
[28] = test system: NCI/ADR-RES ovarian
[29] = test system: OVCAR-3 ovarian
[30] = test system: OVCAR-4 ovarian
[31] = test system: OVCAR-5 ovarian
[32] = test system: OVCAR-8 ovarian
[33] = test system: PC-3 prostate
[34] = test system: RPMI-8226 leukemia
[35] = test system: SF-268 CNS
[36] = test system: SF-295 CNS
[37] = test system: SK-MEL-2 melanoma
[38] = test system: SK-MEL-28 melanoma
[39] = test system: SK-MEL-5 melanoma
[40] = test system: SK-OV-3 ovarian
[41] = test system: SN12C renal
[42] = test system: SNB-19 CNS
[43] = test system: SNB-75 CNS
[44] = test system: SR leukemia
[45] = test system: SW-620 colon
[46] = test system: T-47D breast
[47] = test system: TK-10 renal
[48] = test system: U251 CNS
[49] = test system: UACC-257 melanoma
[50] = test system: UACC-62 melanoma
[51] = test system: UO-31 renal
[52] = test system: DU-145 prostate
[53] = test system: HCT-116 colon
[54] = test system: MDA-MB-231 breast
[55] = test system: RXF 393 renal
[56] = test system: SF-539 CNS
[57] = test system: HCC-2998 colon

For `O=C(O)C12CCC(CC1=O)C2` (configuration not stated), the TGI [1] was > 100 µM, the TGI [2] was > 100 µM and the TGI [3] was > 100 µM. The TGI [4] was > 100 µM, the TGI [5] was > 100 µM and the TGI [6] was > 100 µM. The TGI [7] was > 100 µM, the TGI [8] was > 100 µM and the TGI [9] was > 100 µM. For the same compound, the TGI [10] was > 100 µM, the TGI [11] was > 100 µM and the TGI [12] was > 100 µM. For the same compound, the TGI [13] was > 100 µM, the TGI [14] was > 100 µM and the TGI [15] was > 100 µM. For the same compound, the TGI [16] was > 100 µM, the TGI [17] was > 100 µM and the TGI [18] was > 100 µM. For the same compound, the TGI [19] was > 100 µM, the TGI [20] was > 100 µM and the TGI [21] was > 100 µM. For the same compound, the TGI [22] was > 100 µM, the TGI [23] was > 100 µM and the TGI [24] was > 100 µM. For the same compound, the TGI [25] was > 100 µM, the TGI [26] was > 100 µM and the TGI [27] was > 100 µM. The TGI [28] was > 100 µM, the TGI [29] was > 100 µM and the TGI [30] was > 100 µM. For the same compound, the TGI [31] was > 100 µM, the TGI [32] was > 100 µM and the TGI [33] was > 100 µM. For the same compound, the TGI [34] was > 100 µM, the TGI [35] was > 100 µM and the TGI [36] was > 100 µM. For the same compound, the TGI [37] was > 100 µM, the TGI [38] was > 100 µM and the TGI [39] was > 100 µM. The TGI [40] was > 100 µM, the TGI [41] was > 100 µM and the TGI [42] was > 100 µM. The TGI [43] was > 100 µM, the TGI [44] was > 100 µM and the TGI [45] was > 100 µM. For the same compound, the TGI [46] was > 100 µM, the TGI [47] was > 100 µM and the TGI [48] was > 100 µM. For the same compound, the TGI [49] was > 100 µM, the TGI [50] was > 100 µM and the TGI [51] was > 100 µM.
`Nc1cc(Cl)ccc1SSc1ccc(Cl)cc1N` was tested, and the TGI [1] was 25.9 µM, the TGI [2] was > 100 µM and the TGI [3] was 21.3 µM. For the same compound, the TGI [4] was 35.1 µM, the TGI [5] was 35.7 µM and the TGI [6] was > 100 µM. It also gave a TGI [7] of 35.9 µM, a TGI [52] of 29.2 µM and a TGI [8] of 24.5 µM. For the same compound, the TGI [53] was 21.7 µM, the TGI [9] was 8.8 µM and the TGI [10] was > 100 µM. The TGI [11] was 29.4 µM, the TGI [12] was > 100 µM and the TGI [13] was 46.7 µM. For the same compound, the TGI [14] was 42.3 µM, the TGI [15] was 25.5 µM and the TGI [16] was > 100 µM. The TGI [17] was 24.6 µM, the TGI [18] was 14.2 µM and the TGI [19] was 21.7 µM. It also gave a TGI [20] of 36.3 µM, a TGI [21] of 15.7 µM and a TGI [54] of 20.3 µM. For the same compound, the TGI [22] was 25.9 µM, the TGI [23] was > 100 µM and the TGI [24] was 15.4 µM. It also gave a TGI [25] of 20.4 µM, a TGI [26] of 31.6 µM and a TGI [27] of 23.8 µM. The TGI [28] was 30.4 µM, the TGI [30] was 31.1 µM and the TGI [31] was 30.3 µM. The TGI [32] was > 100 µM, the TGI [33] was 48.4 µM and the TGI [34] was > 100 µM. The TGI [55] was > 100 µM, the TGI [35] was 83.5 µM and the TGI [36] was 25.6 µM. The TGI [56] was 31.5 µM, the TGI [37] was 35 µM and the TGI [38] was 40.6 µM. For the same compound, the TGI [39] was 27 µM, the TGI [40] was > 100 µM and the TGI [41] was 28.7 µM. For the same compound, the TGI [42] was > 100 µM, the TGI [43] was 37.6 µM and the TGI [44] was > 100 µM. The TGI [45] was 15 µM, the TGI [46] was 45.4 µM and the TGI [47] was 40.8 µM. The TGI [48] was 15.4 µM, the TGI [49] was 41.5 µM and the TGI [50] was 12.7 µM. It also gave a TGI [51] of 22.1 µM.
Compound `Cn1c(-c2c(N)n(Cc3ccc(F)cc3)c3nc(C#N)c(C#N)nc23)nc2ccccc21` has a GI50 [1] of 0.918 µM, a TGI [1] of 3.59 µM and a GI50 [2] of 5.48 µM. For the same compound, the TGI [2] was > 50 µM, the GI50 [3] was 0.829 µM and the TGI [3] was 2.43 µM. For the same compound, the GI50 [4] was 2.79 µM, the TGI [4] was 18.2 µM and the GI50 [5] was 1.36 µM. For the same compound, the TGI [5] was 4.43 µM, the GI50 [7] was 1.52 µM and the TGI [7] was 6.26 µM. It also gave a GI50 [52] of 3.02 µM, a TGI [52] of 21.6 µM and a GI50 [8] of 4.16 µM. For the same compound, the TGI [8] was > 50 µM, the GI50 [57] was 1.35 µM and the TGI [57] was 3.05 µM. For the same compound, the GI50 [9] was 2.05 µM, the TGI [9] was 13.6 µM and the GI50 [10] was 3.76 µM. For the same compound, the TGI [10] was > 50 µM, the GI50 [11] was 2.32 µM and the TGI [11] was 22.5 µM. The GI50 [12] was 1.63 µM, the TGI [12] was 18.4 µM and the GI50 [13] was 4.67 µM. The TGI [13] was 26.7 µM, the GI50 [16] was 5.19 µM and the TGI [16] was > 50 µM. The GI50 [17] was 2.19 µM, the TGI [17] was 11.2 µM and the GI50 [18] was 0.739 µM. For the same compound, the TGI [18] was 2.18 µM, the GI50 [19] was 3.48 µM and the TGI [19] was > 50 µM. For the same compound, the GI50 [21] was 2.19 µM, the TGI [21] was > 50 µM and the GI50 [54] was 5.17 µM. For the same compound, the TGI [54] was 38.5 µM, the GI50 [22] was 1.83 µM and the TGI [22] was 13.3 µM. For the same compound, the GI50 [25] was 1.3 µM, the TGI [25] was 4.08 µM and the GI50 [26] was 2.21 µM. The TGI [26] was 25.2 µM, the GI50 [28] was 7.56 µM and the TGI [28] was 22.5 µM. It also gave a GI50 [29] of 0.842 µM, a TGI [29] of 2.6 µM and a GI50 [30] of 2.3 µM. For the same compound, the TGI [30] was > 50 µM, the GI50 [31] was 8.55 µM and the TGI [31] was > 50 µM. The GI50 [32] was 1.63 µM, the TGI [32] was 11.8 µM and the GI50 [33] was 2.61 µM. For the same compound, the TGI [33] was > 50 µM, the GI50 [34] was 1.35 µM and the TGI [34] was 7.17 µM. The GI50 [55] was 1.7 µM, the TGI [55] was 4.86 µM and the GI50 [35] was 5.47 µM. For the same compound, the TGI [35] was > 50 µM, the GI50 [36] was 7.68 µM and the TGI [36] was 32.5 µM. The GI50 [56] was 13.2 µM, the TGI [56] was > 50 µM and the GI50 [37] was 3.62 µM. For the same compound, the TGI [37] was 34.9 µM, the GI50 [38] was 5.65 µM and the TGI [38] was 29 µM. For the same compound, the GI50 [39] was 2.97 µM, the TGI [39] was > 50 µM and the GI50 [40] was 11 µM. The TGI [40] was 33.8 µM, the GI50 [41] was 2.09 µM and the TGI [41] was 20 µM. The GI50 [42] was 12 µM, the TGI [42] was > 50 µM and the GI50 [44] was 1.01 µM. For the same compound, the TGI [44] was > 50 µM, the GI50 [45] was 2.47 µM and the TGI [45] was 21 µM. The GI50 [46] was 1.08 µM, the TGI [46] was 4.61 µM and the GI50 [47] was 1.09 µM. For the same compound, the TGI [47] was 3.77 µM, the GI50 [48] was 3.18 µM and the TGI [48] was 15 µM. For the same compound, the GI50 [49] was 4.51 µM, the TGI [49] was > 50 µM and the GI50 [50] was 3.37 µM. The TGI [50] was 26.6 µM, the GI50 [51] was 2.51 µM and the TGI [51] was > 50 µM.
